Measured values: PMC10454375, “Cell-Impermeable Inhibitors Confirm That Intracellular Human Transglutaminase 2 Is Responsible for the Transglutaminase-Associated Cancer Phenotype” (International Journal of Molecular Sciences, 2023)
Peptide text beside a SMILES is read from it. * marks the point of attachment. X1 = C=CC(=O)NCCCCC(NC(=O)OCc1ccccc1)C(=O)N1CCN(C(=O)C(CCC(=O)*)NC(=O)c2cccc3ccccc23)CC1

Legend:
SCC-13 cells = assay: Cell proliferation, SCC-13; format: cell-based, human; conditions: concentrations up to 100 µM
Experimental: Figure 4 Treatment of cancer cells with cell-permeable and cell-impermeable inhibitors. (A) HaCaT and SCC-13 are epidermis-derived cutaneous squamous cell carcinoma cells that were treated for 10 h with NCEG-RHB prior to imaging using a spinning disc confocal microscope. NCEG-RHB localization is detected adjacent to the nuclei (N) in both cell types and is indicated by red arrows. The HaCaT cell cultures were also stained for 15 min with MitoTracker Green before imaging. MitoTracker Green detects mitochondria membrane proteins inside the cell and the labelling is indicated by green arrows. White scale bars = 100 µm. (B) SCC-13 cells treated with cell-impermeable inhibitor 18 (NCEG2) and cell-permeable inhibitors NC9, AA9, and NCEG-RHB. Scale bars represent 50 µm; (*) p value < 0.001 (C) HaCaT cells treated with cell-impermeable inhibitor 18 (NCEG2) and cell-permeable inhibitors NC9 and AA9. Scale bars represent 50 µm; (*) p value < 0.001. (D) MDA-MB-436 cells treated with cell-impermeable 18 (NCEG2) and with cell-permeable inhibitors NC9, AA9 and NCEG-RHB. Experiments were carried out in triplicate and are represented as average ± SD of the percentage of living cells; (**) p value < 0.01.

TG1 = target: T1, TG1 (Homo sapiens, UniProt P22735); assay: TGase isozyme selectivity, TG1 with AL5 substrate; format: biochemical; conditions: [I]/α identical to that of the TG2 assay
T1 construct: purchased Zedira GmbH (Darmstadt, Germany)
T1 sequence (P22735 1-817): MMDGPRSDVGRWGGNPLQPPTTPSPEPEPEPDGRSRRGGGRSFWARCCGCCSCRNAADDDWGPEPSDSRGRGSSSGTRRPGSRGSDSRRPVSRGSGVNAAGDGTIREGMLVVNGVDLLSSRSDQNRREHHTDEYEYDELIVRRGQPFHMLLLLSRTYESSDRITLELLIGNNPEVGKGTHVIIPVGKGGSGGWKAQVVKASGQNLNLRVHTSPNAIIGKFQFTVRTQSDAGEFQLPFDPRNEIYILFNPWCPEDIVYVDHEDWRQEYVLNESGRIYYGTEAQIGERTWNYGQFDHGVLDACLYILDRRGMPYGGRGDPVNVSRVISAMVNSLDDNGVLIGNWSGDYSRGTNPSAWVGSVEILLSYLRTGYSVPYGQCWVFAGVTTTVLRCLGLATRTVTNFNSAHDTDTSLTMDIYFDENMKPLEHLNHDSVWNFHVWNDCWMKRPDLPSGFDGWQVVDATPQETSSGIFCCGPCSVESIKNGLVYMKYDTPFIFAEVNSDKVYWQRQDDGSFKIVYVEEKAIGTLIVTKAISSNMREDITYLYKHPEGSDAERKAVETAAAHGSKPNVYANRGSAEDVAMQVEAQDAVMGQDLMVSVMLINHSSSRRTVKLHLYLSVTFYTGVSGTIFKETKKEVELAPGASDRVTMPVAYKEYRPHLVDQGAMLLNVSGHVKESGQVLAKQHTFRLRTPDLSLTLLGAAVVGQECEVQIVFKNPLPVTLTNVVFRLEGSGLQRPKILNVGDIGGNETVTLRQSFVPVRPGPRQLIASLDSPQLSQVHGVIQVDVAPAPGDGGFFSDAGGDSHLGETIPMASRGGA
From the text: In the development of probes for TGases, isozyme selectivity is always a significant challenge. Since the catalytic machinery of the active sites of all TGases features a conserved Gly-Gln-Cys-Trp-Val sequence, selectivity for one isozyme over the others requires exploitation of slight differences in the protein substrate binding sites. In order to assess the isozyme selectivity of our cell-impermeable inhibitors, TG2 and four other therapeutically relevant TGases (Factor XIII, TG1, TG3, and TG6) were exposed to a concentration of inhibitor representing the same apparent competition with respect to the assay substrate (AL5 [38] or A101 [42, 43]). In other words, both the substrate and inhibitor concentrations were varied so that the [I]/α values were identical. […] This provides confidence that in further applications, these cell-impermeable inhibitors will selectively target TG2 over other transglutaminases.
To monitor the activity of TG3a and TG6, a FRET-quenched substrate A101 (Zedira Gmbh) was used. […] The isopeptidase activity of the respective TGase was then monitored at Ex/Em = 313/418 nm with a BioTek Synergy 4 plate reader at 25 °C. […]

PAMPA test = format: in vitro ADME; conditions: compound not detected in receptor compartment, limit of detection reported
From the text: The cell-impermeable inhibitors 17 and 18 were designed to violate virtually all of the rules for cellular permeability described by Lipinski and Veber. They were also empirically evaluated with respect to their pharmacokinetic properties, in particular to determine their cell permeability. In a PAMPA test, the −Log Pe values were very high (Table 2). […] Indeed, neither compound was even detected in the receptor compartment for the PAMPA, resulting in the lower limit of detection being reported as an approximate value.

Structure (SMILES)	effect on cell proliferation (SCC-13 cells)	inhibition of TG1 (TG1)	−Log Pe (PAMPA test)
C=CC(=O)NCCCCC(NC(=O)OCc1ccccc1)C(=O)N1CCN(C(=O)C(CCC(=O)NCC(=O)NCC(=O)NCC(=O)NC(CC(=O)O)C(=O)NC(CC(=O)O)C(=O)NC(CC(=O)O)C(=O)O)NC(=O)c2cccc3ccccc23)CC1 (centres unmarked) [Compound 18] (X1-GGGDDD-OH; configuration not given here)	did not have any effect on cell proliferation	no detectable inhibition	>8.79
C=CC(=O)NCCCCC(NC(=O)OCc1ccccc1)C(=O)N1CCN(C(=O)C(CCC(=O)NCCCCCC(=O)NC(CC(=O)O)C(=O)NC(CC(=O)O)C(=O)NC(CC(=O)O)C(=O)O)NC(=O)c2cccc3ccccc23)CC1 (centres unmarked) [Compound 17]		no detectable inhibition	>9.02
